The values that follow come from patent US20150065440A1 (Progen Pharmaceuticals Limited, priority 2007, published 2015).

Read-outs that look alike come from different tables or passages of the source.

The target of data set [1] is T1, recombinant human heparanase (Homo sapiens, UniProt Q9Y251).
T1 sequence (Q9Y251 158-543 limits assumed): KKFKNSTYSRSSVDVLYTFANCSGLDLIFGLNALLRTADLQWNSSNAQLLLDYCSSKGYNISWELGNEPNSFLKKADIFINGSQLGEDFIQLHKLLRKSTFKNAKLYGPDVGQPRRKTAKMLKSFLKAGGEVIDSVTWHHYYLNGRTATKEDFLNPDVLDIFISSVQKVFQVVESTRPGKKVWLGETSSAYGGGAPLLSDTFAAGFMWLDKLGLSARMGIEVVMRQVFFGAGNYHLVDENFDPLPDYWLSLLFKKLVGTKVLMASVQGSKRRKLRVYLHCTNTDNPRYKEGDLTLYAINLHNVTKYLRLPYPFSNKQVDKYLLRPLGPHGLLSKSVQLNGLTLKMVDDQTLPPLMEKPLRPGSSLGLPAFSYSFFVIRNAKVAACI
T1 sequence (Q9Y251 36-109 limits assumed): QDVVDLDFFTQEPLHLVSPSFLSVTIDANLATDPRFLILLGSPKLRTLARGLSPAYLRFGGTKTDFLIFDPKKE
The experiment in a line: Heparanase inhibition assay (fondaparinux cleavage, WST-1). The settings on record: read-out: Ki Heparanase; IC50 converted into Ki; fondaparinux 100 μM, pH 5.0.

In data set [2] the test system is normal pooled human plasma. The experiment in a line: Anticoagulant activity, Heptest. As to conditions: 0.1 mg/mL in normal pooled human plasma.
In the next data set the test system is HSV-2. The experiment in a line: Viral plaque number-reduction assay, HSV-2. The settings on record: for Selective index CC50/IC50 HSV-2: GMK AH1 cells; for HSV-2 IC50: viral plaques in GMK AH1 cells (Table 9). The essentials:
(§1)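 200 PFU virus premixed 10 min with compound (100 μg/mL screen) and kept throughout infection. HSV plaques in GMK AH1 cells, RSV (strain A-2) in HEp-2 cells. Methylcellulose overlay, 37 °C, crystal violet staining after 2 days (HSV-2) or 3 days (HSV-1); plaque numbers counted.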

The subject of a further data set is RSV. The experiment in a line: Viral plaque number-reduction assay, RSV. As to conditions: for Selective index CC50/IC50 RSV: HEp-2 cells; for RSV IC50: viral plaques (Table 9). The method in brief:
as §1

In the next data set the target is FGF-2 (Homo sapiens, UniProt P09038). The experiment in a line: Growth factor binding assay (SPR solution affinity), FGF-2. The essentials:
(§2)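 Kd measured by SPR solution affinity: fixed growth factor with varying ligand competing for heparin-coated sensorchip, 25 °C. Buffer HBS-EP pH 7.4 (150 mM NaCl) for FGF-1 and VEGF; FGF-2 with 0.3 M NaCl. Duplicate values averaged.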

Data set [3] concerns pooled normal human plasma. The experiment in a line: Anticoagulant activity, APTT. As to conditions: 0.1 mg/mL in normal pooled human plasma. As for the experimental part: APTT measurements were performed on a STAGO STA-Compact Coagulation Analyser using standard protocols according to the manufacturer's instructions. Unfractionated heparin (UFH) was used as a control.
A further data set concerns the target T2, VEGF (Homo sapiens, UniProt P15692).
T2 sequence (P15692 207-395): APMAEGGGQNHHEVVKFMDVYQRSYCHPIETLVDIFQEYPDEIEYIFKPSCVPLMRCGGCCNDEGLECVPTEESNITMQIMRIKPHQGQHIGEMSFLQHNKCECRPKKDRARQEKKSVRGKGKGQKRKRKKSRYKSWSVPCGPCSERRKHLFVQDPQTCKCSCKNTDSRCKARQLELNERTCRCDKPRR
As to the kind of experiment: Growth factor binding assay (SPR solution affinity), VEGF. The settings on record: HBS-EP buffer, 25° C. The essentials:
as §2

The next data set concerns the target FGF-1 (Homo sapiens, UniProt P05230). The experiment in a line: Growth factor binding assay (SPR solution affinity), FGF-1. As to conditions: SPR, HBS-EP buffer, 25° C.; read-out: Kd FGF-1.
The mark [4] stands for this setting: SPR, HBS-EP buffer containing 0.3 M NaCl, 25° C.; read-out: Kd FGF-2.

FGF-1, sequence (P05230 whole entry, species assumed): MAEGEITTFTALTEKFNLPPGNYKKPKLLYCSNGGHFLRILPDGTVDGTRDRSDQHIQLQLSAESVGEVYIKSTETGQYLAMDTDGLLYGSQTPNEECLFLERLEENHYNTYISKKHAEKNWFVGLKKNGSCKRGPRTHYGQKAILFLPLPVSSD
FGF-2, sequence (P09038 143-288, species assumed): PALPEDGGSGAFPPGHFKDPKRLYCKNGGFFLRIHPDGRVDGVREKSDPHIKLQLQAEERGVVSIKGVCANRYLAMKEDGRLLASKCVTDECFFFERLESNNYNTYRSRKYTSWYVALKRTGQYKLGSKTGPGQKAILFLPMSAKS

`CCCCCCCCCCCCOC1OC(COS(=O)(=O)O)C(OS(=O)(=O)O)C(OS(=O)(=O)O)C1OC1OC(COS(=O)(=O)O)C(OS(=O)(=O)O)C(OC2OC(COS(=O)(=O)O)C(OS(=O)(=O)O)C(OC3OC(COS(=O)(=O)O)C(OS(=O)(=O)O)C(OC4OC(COS(=O)(=O)O)C(OS(=O)(=O)O)C(OS(=O)(=O)O)C4OS(=O)(=O)O)C3OS(=O)(=O)O)C2OS(=O)(=O)O)C1OS(=O)(=O)O` [Compound 4, Dodecyl 2,3,4,6-tetra-O-sodium sulfonato-α-D-mannopyranosyl-(1→3)-2,4,6-tri-O-sodium sulfonato-α-D-mannopyranosyl-(1→3)-2,4,6-tri-O-sodium sulfonato-α-D-mannopyranosyl-(1→3)-2,4,6-tri-O-sodium sulfonato-α-D-mannopyranosyl-(1→2)-3,4,6-tri-O-sodium sulfonato-α-D-mannopyranoside]: the Ki in data set [1] was determined as 4.2 ± 0.5 nM. In data set [2], this compound displayed a Heptest of 64.2 s. Further, in the data set with HSV-2, the “Selective index CC50/IC50 HSV-2” value is more than 444. In addition, the “Selective index CC50/IC50 RSV” value in the data set with RSV is given as more than 87. Also, the values for the Kd on FGF-2 (setting [4]), on VEGF and at FGF-1 were 480 ± 70 nM, 12 ± 3 nM and 6 ± 3 nM, respectively. Also, the APTT in data set [3] was 125.9 s.

Regarding `CC(C)CCCC(C)C1CCC2C3CCC4CC(OC5OC(COS(=O)(=O)O)C(OS(=O)(=O)O)C(OS(=O)(=O)O)C5OC5OC(COS(=O)(=O)O)C(OS(=O)(=O)O)C(OC6OC(COS(=O)(=O)O)C(OS(=O)(=O)O)C(OC7OC(COS(=O)(=O)O)C(OS(=O)(=O)O)C(OS(=O)(=O)O)C7OS(=O)(=O)O)C6OS(=O)(=O)O)C5OS(=O)(=O)O)CCC4(C)C3CCC12C` [Compound 20, 3β-Cholestanyl 2,3,4,6-tetra-O-sodium sulfonato-α-D-mannopyranosyl-(1→3)-2,4,6-tri-O-sodium sulfonato-α-D-mannopyranosyl-(1→3)-2,4,6-tri-O-sodium sulfonato-α-D-mannopyranosyl-(1→2)-3,4,6-tri-O-sodium sulfonato-α-D-mannopyranoside], the Ki in data set [1] worked out at 5.8 ± 1.5 nM. Further, the Heptest in data set [2] was 28.0 s. Further, the “Selective index CC50/IC50 HSV-2” value in the data set with HSV-2 was determined as 100. Also, the “Selective index CC50/IC50 RSV” value with RSV was 66. In addition, the dissociation constant Kd at FGF-2 (read-out: Kd FGF-2; SPR, HBS-EP buffer containing 0.3 M NaCl, 25° C.) stood at 160 ± 40 nM; at VEGF it was 22 ± 6 nM; on FGF-1, 0.6 ± 0.5 nM. In data set [3], this compound registered an APTT of 94.0 s.

On to `CC(C)CCC[C@@H](C)[C@H]1CC[C@H]2[C@@H]3CC[C@H]4C[C@@H](O[C@H]5O[C@H](COS(=O)(=O)O)[C@@H](OS(=O)(=O)O)[C@H](OS(=O)(=O)O)[C@@H]5O[C@H]5O[C@H](COS(=O)(=O)O)[C@@H](OS(=O)(=O)O)[C@H](OS(=O)(=O)O)[C@@H]5OS(=O)(=O)O)CC[C@]4(C)[C@H]3CC[C@]12C` [Compound 33, 3β-Cholestanyl 2,3,4,6-tetra-O-sodium sulfonato-α-D-mannopyranosyl-(1→2)-3,4,6-tri-O-sodium sulfonato-α-D-mannopyranoside], for which the Ki in data set [1] is 22.3 ± 1.6 nM. Also, the Heptest in data set [2] came out at 25.5 s. The IC50 is 0.7 µg/mL with HSV-2 (Human alphaherpesvirus 2, read-out: HSV-2 IC50) and 1.8 µg/mL in the data set with RSV (human respiratory syncytial virus, read-out: RSV IC50). Besides, the Kd was determined as 1570 ± 150 nM at FGF-2 (setting [4]), 1300 ± 300 nM on VEGF and 270 ± 30 nM at FGF-1. In data set [3], this compound had an APTT of 40.6 s.

For the compound `CC(C)CCC[C@@H](C)[C@H]1CC[C@H]2[C@@H]3CCC4CC(O[C@H]5O[C@H](COS(=O)(=O)[O-])[C@@H](OS(=O)(=O)[O-])[C@H](O[C@H]6O[C@H](COS(=O)(=O)[O-])[C@@H](OS(=O)(=O)[O-])[C@H](O[C@H]7O[C@H](COS(=O)(=O)[O-])[C@@H](OS(=O)(=O)[O-])[C@H](OS(=O)(=O)[O-])[C@@H]7OS(=O)(=O)[O-])[C@@H]6OS(=O)(=O)[O-])[C@@H]5OS(=O)(=O)[O-])CC[C@]4(C)[C@H]3CC[C@]12C.[Na+].[Na+].[Na+].[Na+].[Na+].[Na+].[Na+].[Na+].[Na+].[Na+]` (stereo partly drawn) [Compound 56, 3′-Cholestanyl 2,3,4,6-tetra-O-sodium sulfonato-α-D-mannopyranosyl-(1→3)-2,4,6-tri-O-sodium sulfonato-α-D-mannopyranosyl-(1→3)-3,4,6-tri-O-sodium sulfonato-α-D-mannopyranoside], the inhibitory constant (Ki) in data set [1] is 10.5 ± 1.7 nM. The compound also had a Heptest in data set [2] of 24.2 s. The “HSV-2 IC50” value with HSV-2 turned out to be 0.3 µg/mL. Also, the “RSV IC50” value in the data set on RSV turned out to be 0.45 µg/mL. The dissociation constant (Kd) at FGF-2 (setting [4]) was 490 ± 40 nM; on VEGF it was 90 ± 30 nM; on FGF-1, 16 ± 7 nM. In data set [3], the APTT turned out to be 58.5 s.

In the case of `CC(C)CCC[C@@H](C)[C@H]1CC[C@H]2[C@@H]3CCC4C[C@@H](OCc5cn(CCCO[C@H]6O[C@H](COS(=O)(=O)[O-])[C@@H](OS(=O)(=O)[O-])[C@H](O[C@H]7O[C@H](COS(=O)(=O)[O-])[C@@H](OS(=O)(=O)[O-])[C@H](O[C@H]8O[C@H](COS(=O)(=O)[O-])[C@@H](OS(=O)(=O)[O-])[C@H](OS(=O)(=O)[O-])[C@@H]8OS(=O)(=O)[O-])[C@@H]7OS(=O)(=O)[O-])[C@@H]6OS(=O)(=O)[O-])nn5)CC[C@]4(C)[C@H]3CC[C@]12C.[Na+].[Na+].[Na+].[Na+].[Na+].[Na+].[Na+].[Na+].[Na+].[Na+]` (stereo partly drawn) [Compound 60, 3-{4-(Cholestan-3β-yl-oxymethyl)-[1,2,3]triazol-1-yl}propyl 2,3,4,6-tetra-O-sodium sulfonato-α-D-mannopyranosyl-(1→3)-2,4,6-tri-O-sodium sulfonato-α-D-mannopyranosyl-(1→3)-3,4,6-tri-O-sodium sulfonato-α-D-mannopyranoside], the Ki in data set [1] is 8.4 ± 2.6 nM. This compound also displayed a Heptest in data set [2] of 26.4 s. The “HSV-2 IC50” value in the data set with HSV-2 was determined as 0.24 µg/mL. For the same compound, the “RSV IC50” value in the data set with RSV was 0.39 µg/mL. Also, the figures for the Kd on FGF-2 (setting [4]), on VEGF and on FGF-1 were 474 ± 1.4 nM, 260 ± 130 nM and 14.3 ± 3 nM, respectively. In addition, the APTT in data set [3] came to 71.4 s.

Turning to `CC(C)CCC[C@@H](C)[C@H]1CC[C@H]2[C@@H]3CCC4CC(OCc5cn([C@@H]6O[C@H](COS(=O)(=O)[O-])[C@@H](O[C@H]7O[C@H](COS(=O)(=O)[O-])[C@@H](O[C@H]8O[C@H](COS(=O)(=O)[O-])[C@@H](OS(=O)(=O)[O-])[C@H](OS(=O)(=O)[O-])[C@H]8OS(=O)(=O)[O-])[C@H](OS(=O)(=O)[O-])[C@H]7OS(=O)(=O)[O-])[C@H](OS(=O)(=O)[O-])[C@H]6OS(=O)(=O)[O-])nn5)CC[C@]4(C)[C@H]3CC[C@]12C.[Na+].[Na+].[Na+].[Na+].[Na+].[Na+].[Na+].[Na+].[Na+].[Na+]` (stereo partly drawn) [Compound 70, 4-(Cholestan-3-yl-oxymethyl)[1,2,3]triazol-1-yl 2,3,4,6-tetra-O-sodium sulfonato-α-D-glucopyranosyl-(1→4)-2,3,6-tri-O-sodium sulfonato-α-D-glucopyranosyl-(1→4)-1-deoxy-2,3,6-tri-O-sodium sulfonato-β-D-glucopyranoside], in data set [1], the inhibition constant (Ki) was 3.7 ± 0.8 nM. In data set [2], this compound showed a Heptest of 45.5 s. The “HSV-2 IC50” value in the data set with HSV-2 was determined as 0.15 µg/mL. Moreover, in the data set with RSV, the “RSV IC50” value was found to be 0.23 µg/mL. Further, the dissociation constant Kd was 390 ± 90 nM on FGF-2 (setting [4]), 95 ± 8 nM at VEGF and 9.7 ± 0.8 nM on FGF-1. The compound also had an APTT in data set [3] of 104.0 s.
